Patent US20130302282A1, “Inhibitors of Hepatitis C Virus” (priority 2010, published 2013)
pEC50: −log10 of the molar value. Like-named read-outs stand apart in the source and are kept apart here.

Columns and labels:
[1] = test system: 1b_Huh-Luc/Neo-ET cell line (bicistronic genotype 1b replicon in Huh 7 cells); test: HCV 1b replicon assay, luciferase readout; assay type: cell-based, HCV genotype 1b; conditions: Hepatitis C virus
Method in brief: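 Huh 7 cells persistently carrying a bicistronic genotype 1b luciferase replicon, treated with compound in triplicate the day after plating and incubated 72 h. Luciferase activity measured by Bright-Glo and expressed as percent of untreated control; EC50 from four-parameter fit, repeated several times.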

HCV NS5B C316Y mutant = target: T1, HCV NS5B C316Y mutant (Hepatitis C virus genotype 1b, UniProt Q9WMX2, C2735Y); test: Activity against HCV NS5B C316Y mutant; assay type: cell-based; conditions: for Inhibition of HCV N55B C316Y mutant: class symbol
T1 construct: HCV NS5B C316Y or S365A mutant as indicated; expressed in transfected cells
Experimental: (§1) The biological activity against HCV 1b, 1a, or 2a is indicated as being *, **, ***, or ****, which corresponds to EC50 ranges of EC50>1000 nM, 100 nM<EC50≦1000 nM, 10 nM<EC50≦100 nM, or EC50≦10 nM, respectively. The biological activity against HCV NS5B C316Y or S365A mutant is indicated as being […], which corresponds to EC50 ranges of EC50>1000 nM, 200 nM<EC50≦1000 nM, […], respectively.

HCV NS5B S365A mutant = target: T2, HCV NS5B S365A mutant (Hepatitis C virus genotype 1b, UniProt Q9WMX2, S2784A); test: Activity against HCV NS5B S365A mutant; assay type: cell-based; conditions: for Inhibition of HCV NS5B S3865A mutant: class symbol
T2 construct: HCV NS5B C316Y or S365A mutant as indicated; expressed in transfected cells
Experimental: as §1

HCV 2a = HCV 2a replicon assay; assay type: cell-based; conditions: Hepatitis C virus; class symbol; cell marked (HCV genotype 2a replicon); read-out: Inhibition of HCV genotype 2a replicon
Experimental: (§2) Compounds of the invention can inhibit multiple genotypes of HCV selected but not limited to 1a, 1h, 2a, 3a, and 4a. The EC50s are measured in the corresponding replicon assays that are similar to HCV 1b replicon assay as described above.
as §1

HCV 1a = HCV 1a replicon assay; assay type: cell-based; conditions: Hepatitis C virus; class symbol; cell marked (HCV genotype 1a replicon); read-out: Inhibition of HCV genotype 1a replicon
Experimental: as §2, §1

[2] = Huh-7, class symbol, HCV genotype 1b replicon, read-out: Inhibition of HCV genotype 1b replicon
[3] = Huh-7, 1b_Huh-Luc/Neo-ET cell line, read-out: EC50, half-maximal inhibition of HCV 1b replication

T1 sequence (Q9WMX2 2420-3010 C2735Y): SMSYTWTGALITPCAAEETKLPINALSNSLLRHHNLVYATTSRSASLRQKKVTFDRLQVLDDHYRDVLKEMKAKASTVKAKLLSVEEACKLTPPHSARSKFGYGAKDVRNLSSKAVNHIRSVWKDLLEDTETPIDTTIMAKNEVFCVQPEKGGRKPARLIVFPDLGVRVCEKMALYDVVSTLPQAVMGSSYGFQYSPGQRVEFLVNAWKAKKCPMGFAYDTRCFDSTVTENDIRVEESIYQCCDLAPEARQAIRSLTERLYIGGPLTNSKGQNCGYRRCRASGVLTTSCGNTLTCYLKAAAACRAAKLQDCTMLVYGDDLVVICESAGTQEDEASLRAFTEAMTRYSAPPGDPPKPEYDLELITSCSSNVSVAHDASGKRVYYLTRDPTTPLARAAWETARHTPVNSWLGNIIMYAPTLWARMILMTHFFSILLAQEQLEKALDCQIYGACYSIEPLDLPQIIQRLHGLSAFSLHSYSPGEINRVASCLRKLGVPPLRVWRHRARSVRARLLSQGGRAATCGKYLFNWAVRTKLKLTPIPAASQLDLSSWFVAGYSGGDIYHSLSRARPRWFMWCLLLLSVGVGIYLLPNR
T2 sequence (Q9WMX2 2420-3010 S2784A): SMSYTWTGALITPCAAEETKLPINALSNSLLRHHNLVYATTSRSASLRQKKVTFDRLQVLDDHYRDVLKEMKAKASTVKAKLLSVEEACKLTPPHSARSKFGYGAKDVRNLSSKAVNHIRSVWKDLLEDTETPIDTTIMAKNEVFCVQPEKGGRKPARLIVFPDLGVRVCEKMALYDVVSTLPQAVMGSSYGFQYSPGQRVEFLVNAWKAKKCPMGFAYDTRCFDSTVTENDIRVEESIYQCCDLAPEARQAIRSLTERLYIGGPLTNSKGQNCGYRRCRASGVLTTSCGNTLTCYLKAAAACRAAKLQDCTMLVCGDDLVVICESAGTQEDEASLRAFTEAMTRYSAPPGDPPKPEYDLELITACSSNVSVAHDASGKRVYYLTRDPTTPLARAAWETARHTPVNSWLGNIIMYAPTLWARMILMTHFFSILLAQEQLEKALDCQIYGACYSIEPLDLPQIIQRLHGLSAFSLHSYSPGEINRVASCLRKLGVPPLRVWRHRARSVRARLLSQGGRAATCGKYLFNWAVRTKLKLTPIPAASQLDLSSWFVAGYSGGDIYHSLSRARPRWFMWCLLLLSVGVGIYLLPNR

| Compound | pEC50 [1, 2] | pEC50 (HCV 2a) | pEC50 [1, 3] | also measured |
| --- | --- | --- | --- | --- |
| CNC(=O)c1c(-c2ccc(F)cc2)oc2cc3c(cc12)CCCN3S(C)(=O)=O [Compound B1] | 6.00 to 7.00 | – | – | Inhibition of HCV N55B C316Y mutant (HCV NS5B C316Y mutant): ††† (EC50 ≦ 200 nM); Inhibition of HCV NS5B S3865A mutant (HCV NS5B S365A mutant): ††† (EC50 ≦ 200 nM) |
| CNC(=O)c1c(-c2ccc(F)cc2)oc2cc3c(cc12)C(C)=CCN3S(C)(=O)=O [Compound B11] | – | < 6.00 | – | – |
| CCC1CCCN(S(C)(=O)=O)c2cc3oc(-c4ccc(F)cc4)c(C(=O)NC)c3cc21 (stereo not shown) [Compound B63] | – | 7.00 to 8.00 | 7.00 to 8.00 | – |
| C=CC1CCCN(S(C)(=O)=O)c2cc3oc(-c4ccc(F)cc4)c(C(=O)NC)c3cc21 (stereo not shown) [Compound B60] | – | 7.00 to 8.00 | 7.00 to 8.00 | – |
| CNC(=O)c1c(-c2ccc(Oc3ccc(Cl)cc3)cc2)nn2cc3c(cc12)C(C)CCCN3S(C)(=O)=O (stereo not shown) [Compound B99] | – | 6.00 to 7.00 | – | – |
| CNC(=O)c1c(-c2ccc(F)cc2)oc2cc3c(cc12)C(=O)C(C)CCN3S(C)(=O)=O (stereo not shown) [Compound B77] | – | 6.00 to 7.00 | – | – |
| CNC(=O)c1c(-c2ccc(F)cc2)oc2cc3c(cc12)C(=O)C(C)(C)CCN3S(C)(=O)=O [Compound B100] | – | 7.00 to 8.00 | 7.00 to 8.00 | – |
| CNC(=O)c1c(-c2ccc(F)cc2)oc2cc3c(cc12)[C@H](C)OC1(CC1)CN3S(C)(=O)=O (single isomer, unassigned) [Compound B193] | 7.00 to 8.00 | – | 7.00 to 8.00 | pEC50 (HCV NS5B C316Y mutant): 6.00 to 6.70; pEC50 (HCV NS5B S365A mutant): 6.00 to 6.70 |
| CNC(=O)c1c(-c2ccc(F)cc2)oc2cc3c(cc12)C=C(C)CCN3S(C)(=O)=O [Compound B79] | – | < 6.00 | – | – |
| CNC(=O)c1c(-c2ccc(F)cc2)oc2cc3c(cc12)C(C)N(CCS(C)(=O)=O)CCN3S(C)(=O)=O (stereo not shown) [Compound B156] | 7.00 to 8.00 | – | 7.00 to 8.00 | Inhibition of HCV N55B C316Y mutant (HCV NS5B C316Y mutant): †††; Inhibition of HCV NS5B S3865A mutant (HCV NS5B S365A mutant): ††† |
| CNC(=O)c1c(-c2ccc(F)cc2)oc2cc3c(cc12)C(OC)CCCN3S(C)(=O)=O (stereo not shown) [Compound B71] | – | 7.00 to 8.00 | 7.00 to 8.00 | – |
| CNC(=O)c1c(-c2ccc(F)cc2)nn2cc3c(cc12)C(C)=CCCN3S(C)(=O)=O [Compound B72] | – | < 6.00 | – | – |
| CNC(=O)c1c(-c2ccc(F)cc2)oc2cc3c(cc12)[C@H](C)O[C@H](CO)CN3S(C)(=O)=O [Compound B212] | > 8.00 | – | ≥ 8.00 | Inhibition of HCV N55B C316Y mutant (HCV NS5B C316Y mutant): †††; Inhibition of HCV NS5B S3865A mutant (HCV NS5B S365A mutant): ††† |
| CNC(=O)c1c(-c2ccc(Oc3ccc(F)cc3)cc2)oc2cc3c(cc12)C(C)N(C)CCN3S(C)(=O)=O (stereo not shown) [Compound B151] | – | – | 7.00 to 8.00 | pEC50 (HCV 1a): 7.00 to 8.00 |
| [2H]C([2H])([2H])NC(=O)c1c(-c2ccc(F)cc2)oc2cc3c(cc12)CCCCCN3S(C)(=O)=O [Compound B113] | – | – | 7.00 to 8.00 | pEC50 (HCV 1a): 7.00 to 8.00 |
| CNC(=O)c1c(-c2ccc(F)cc2)oc2cc3c(cc12)[C@H](C)n1nncc1CN3S(C)(=O)=O (single isomer, unassigned) [Compound B169] | > 8.00 | – | ≥ 8.00 | Inhibition of HCV N55B C316Y mutant (HCV NS5B C316Y mutant): †††; Inhibition of HCV NS5B S3865A mutant (HCV NS5B S365A mutant): ††† |
| CCCN1CCN(S(C)(=O)=O)c2cc3oc(-c4ccc(F)cc4)c(C(=O)NC)c3cc2C1C (stereo not shown) [Compound B137] | – | – | 7.00 to 8.00 | pEC50 (HCV 1a): 7.00 to 8.00 |
| CNC(=O)c1c(-c2ccc(Oc3ccc(F)cc3)cc2)oc2cc3c(cc12)[C@H](C)O[C@H](CS(C)(=O)=O)CN3S(C)(=O)=O [Compound B207] | > 8.00 | – | – | Inhibition of HCV N55B C316Y mutant (HCV NS5B C316Y mutant): †††; Inhibition of HCV NS5B S3865A mutant (HCV NS5B S365A mutant): ††† |
| CNC(=O)c1c(-c2ccc(F)cc2)nn2cc3c(cc12)C(O)CCCN3S(C)(=O)=O (stereo not shown) [Compound B73] | – | < 6.00 | – | – |
| CNC(=O)c1c(-c2ccc(F)cc2)oc2cc3c(cc12)C(C)N(C(=O)OC)CCN3S(C)(=O)=O (stereo not shown) [Compound B109] | – | – | 7.00 to 8.00 | pEC50 (HCV 1a): 7.00 to 8.00 |
| CNC(=O)c1c(-c2ccc(F)cc2)oc2cc3c(cc12)[C@H](C)NC(=O)CN3S(C)(=O)=O (single isomer, unassigned) [Compound B208] | > 8.00 | – | ≥ 8.00 | Inhibition of HCV N55B C316Y mutant (HCV NS5B C316Y mutant): †††; Inhibition of HCV NS5B S3865A mutant (HCV NS5B S365A mutant): ††† |
| CNC(=O)c1c(-c2ccc(F)cc2)oc2cc3c(cc12)C(C)N(CC1CC1)CCN3S(C)(=O)=O (stereo not shown) [Compound B108] | – | – | 7.00 to 8.00 | pEC50 (HCV 1a): 7.00 to 8.00 |
| [2H]C([2H])([2H])NC(=O)c1c(-c2ccc(F)cc2)oc2cc3c(cc12)CCCCN3S(C)(=O)=O [Compound B112] | – | – | 7.00 to 8.00 | pEC50 (HCV 1a): 7.00 to 8.00 |
